Ki data for 9 compounds are collected here from ChEMBL document CHEMBL2163195, “Development of potent carbonic anhydrase inhibitors incorporating both sulfonamide and sulfamide groups” (J Med Chem, 2012).

This test has as its target Carbonic anhydrase 9 (Homo sapiens, UniProt Q16790).
As usually defined, the Ki is the equilibrium dissociation constant of an inhibitor or competing ligand from its target. A higher Ki goes with a looser hold on the target. In turn, `NS(=O)(=O)Nc1ccc(S(N)(=O)=O)cc1` came in with a Ki of 64 nM.

Regarding `NS(=O)(=O)NCc1ccc(S(N)(=O)=O)cc1`, the Ki was found to be 65 nM.

As for `NS(=O)(=O)NCCc1ccc(S(N)(=O)=O)cc1`, the affinity corresponds to a Ki of 611 nM.

As for `NS(=O)(=O)Nc1ccc(S(=O)(=O)Nc2ccc(S(N)(=O)=O)cc2)cc1`, the Ki was 27 nM.

Regarding `NS(=O)(=O)Nc1ccc(S(=O)(=O)NCc2ccc(S(N)(=O)=O)cc2)cc1`, the Ki was determined as 35 nM.

Take `NS(=O)(=O)Nc1ccc(S(=O)(=O)NCCc2ccc(S(N)(=O)=O)cc2)cc1`: the inhibition constant (Ki) was 65 nM.

Consider `NS(=O)(=O)Nc1ccc(S(=O)(=O)Nc2ccc(C(=O)O)cc2)cc1`, for which affinity was put at a Ki of 57 nM.

On to `NS(=O)(=O)Nc1ccc(S(=O)(=O)Nc2ccc(C(=O)NCCc3ccc(S(N)(=O)=O)cc3)cc2)cc1`, for which the Ki was found to be 0.4 nM.

With `CC(=O)Nc1ccc(S(=O)(=O)Nc2ccc(C(=O)NCCc3ccc(S(N)(=O)=O)cc3)cc2)cc1`, the affinity, expressed as Ki, was 4.5 nM.
